We go through 19 compounds from paper PMC2804908 (Journal of medicinal chemistry, 2010).

pEC50: −log10 of the molar value. Several values for one entry are separate records, joined by “and”; a condition that tells them apart may be missing. Identical values can stand only once. Like-named read-outs stand apart in the source and are kept apart here.

One test deals with T1, hP2Y14 receptor (Homo sapiens, UniProt Q15391).
T1 sequence (Q15391 1-338): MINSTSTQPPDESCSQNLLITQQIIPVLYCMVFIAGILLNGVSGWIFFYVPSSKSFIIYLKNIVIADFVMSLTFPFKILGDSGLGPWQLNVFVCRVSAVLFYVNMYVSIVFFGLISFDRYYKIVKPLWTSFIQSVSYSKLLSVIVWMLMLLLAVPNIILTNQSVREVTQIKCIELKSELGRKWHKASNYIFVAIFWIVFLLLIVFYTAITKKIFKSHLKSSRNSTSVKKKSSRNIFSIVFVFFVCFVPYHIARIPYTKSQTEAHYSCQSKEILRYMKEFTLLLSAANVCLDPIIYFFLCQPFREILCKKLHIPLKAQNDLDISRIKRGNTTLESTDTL
The experiment in a line: P2Y14 receptor-inhibited accumulation of cAMP. In kind it is cell-based. The settings on record: for agonist activity at the P2Y14 receptor (in words): HEK-293 cells expressing hP2Y14; for fold selectivity for P2Y14 in comparison to P2Y6: ratio of EC50 at hP2Y6 to EC50 at hP2Y14; for fold more potent than UDP 3 at the P2Y14 receptor / fold less potent than UDP 3 at the P2Y14 receptor: relative to compound 3; for pEC50: read-out: EC50, hP2Y14, inhibition of cAMP formation, HEK-293 cells stably transfected with hP2Y14, mean ± standard error, N = 3, NE = no effect at 10 μM. Background: Cyclic AMP is a second messenger, typically raised through Gs and lowered through Gi signalling.

Test [1] deals with T2, hP2Y6 receptor (Homo sapiens, UniProt Q15077). The experiment in a line: P2Y6 receptor-stimulated PLC activity. Conditions: for agonist activity at the P2Y6 receptor (in words): at the concentrations tested. The format is cell-based.
T2 sequence (Q15077 whole entry): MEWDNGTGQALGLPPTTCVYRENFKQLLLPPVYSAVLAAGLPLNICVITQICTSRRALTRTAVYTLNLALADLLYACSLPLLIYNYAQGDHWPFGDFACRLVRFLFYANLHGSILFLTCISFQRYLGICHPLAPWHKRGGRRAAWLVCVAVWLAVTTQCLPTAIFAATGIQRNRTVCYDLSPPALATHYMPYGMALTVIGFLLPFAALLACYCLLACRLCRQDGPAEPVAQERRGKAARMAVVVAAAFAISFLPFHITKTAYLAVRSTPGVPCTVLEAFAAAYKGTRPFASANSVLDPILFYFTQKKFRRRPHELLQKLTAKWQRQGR
For test [2], the target named is T2, hP2Y6 receptor. The settings on record: read-out: EC50, hP2Y6; stimulation of PLC, hP2Y6 in 1321N1 cells; footnote b; NE = no effect at 10 μM; ref Maruoka et al. 15, Besada et al. 17, Ko et al. 18; cited from earlier work.

Take `O=c1ccn([C@@H]2O[C@H](COP(=O)(O)OP(=O)(O)O)[C@@H](O)[C@H]2O)c(=O)[nH]1` [Compound 3, uridine-5′-diphosphate, reference compound]: the “agonist activity at the P2Y14 receptor (in words)” value at hP2Y14 receptor is on record as “moderately potent agonists”; on hP2Y14 receptor (listed as UDP) it was “full agonist”. In the case of `O=c1ccn([C@@H]2O[C@H](COP(=O)(O)OP(=O)(O)O)[C@@H](O)[C@H]2O)c(=S)[nH]1` [Compound 4, 2-thio-UDP], at hP2Y14 receptor, the “fold selectivity for P2Y14 in comparison to P2Y6” value (from here on “fold selectivity for P2Y14”) was 233 fold and the “fold more potent than UDP 3 at the P2Y14 receptor” value is reported as 83 fold. As to `O=c1[nH]c(=S)ccn1[C@@H]1O[C@H](COP(=O)(O)OP(=O)(O)O)[C@@H](O)[C@H]1O` [Compound 5, 4-thio-UDP], the “agonist activity at the P2Y14 receptor (in words)” value on hP2Y14 receptor is given as “moderately potent agonists”.

For the compound `CO/N=c1\ccn([C@@H]2O[C@H](COP(=O)(O)OP(=O)(O)O)[C@@H](O)[C@H]2O)c(=O)[nH]1.Cl` [Compound 7, N^4-OCH3-CDP], the “fold less potent than UDP 3 at the P2Y14 receptor” value on hP2Y14 receptor came out at 20 fold.

As a reminder, the pEC50 is the EC50 on a negative log10 scale, so that one unit is a factor of ten. For the compound `O=c1ccn([C@H]2[C@H](O)[C@H](O)[C@@]3(COP(=O)(O)OP(=O)(O)O)C[C@H]23)c(=O)[nH]1` [Compound 8, (N)-methanocarba UDP], the pEC50 at hP2Y14 receptor is below 5.00; on hP2Y6 receptor [1] (read-out: EC50, hP2Y6, stimulation of PLC, hP2Y6 stably expressed in 1321N1 cells, mean ± standard error, N = 3, >10,000 = <50% effect at 10 μM, NE = no effect at 10 μM), below 5.00. Consider `O=c1ccn([C@@]23C[C@H]2[C@H](COP(=O)(O)OP(=O)(O)O)[C@@H](O)[C@H]3O)c(=O)[nH]1` [Compound 9, (S)-methanocarba UDP], for which, on hP2Y14 receptor, the pEC50 is below 5.00.

Turning to `O=c1ccn([C@@H]2O[C@H](COP(=O)(O)C(F)(F)P(=O)(O)O)[C@@H](O)[C@H]2O)c(=O)[nH]1` [Compound 12, α,β-difluoromethylene UDP], the “agonist activity at the P2Y6 receptor (in words)” value at hP2Y6 receptor [1] is reported as “did not activate”. In addition, the pEC50 at hP2Y6 receptor [2] is below 5.00. For the compound `O=c1[nH]c(=O)n([C@@H]2O[C@H](COP(=O)(O)C(F)(F)P(=O)(O)O)[C@@H](O)[C@H]2O)cc1I` [Compound 13, 5-I-Up-CF2-p], on hP2Y14 receptor, the “fold selectivity for P2Y14” value is recorded as “not selective”. For the compound `COP(=O)(O)OP(=O)(O)OC[C@H]1O[C@@H](n2ccc(=O)[nH]c2=O)[C@H](O)[C@@H]1O.N` [Compound 14, Diphosphoric acid 1-β-methyl ester 2-(uridine-5′-yl)ester], the “agonist activity at the P2Y14 receptor (in words)” value on hP2Y14 receptor is reported as “weakly activated”. For the same compound, the “agonist activity at the P2Y6 receptor (in words)” value on hP2Y6 receptor [1] is “inactive”. Turning to `COP(=O)(O)OP(=O)(O)OC[C@H]1O[C@@H](n2ccc(=O)[nH]c2=S)[C@H](O)[C@@H]1O.N` [Compound 15, Diphosphoric acid 1-β-methyl ester 2-(2-thiouridine-5′-yl)ester], the “fold selectivity for P2Y14” value at hP2Y14 receptor is above 180 fold.

In the case of `COP(=O)(O)OP(=O)(O)OC[C@H]1O[C@@H](n2ccc(=S)[nH]c2=O)[C@H](O)[C@@H]1O` [Compound 16, Diphosphoric acid 1-β-methyl ester 2-(4-thiouridine-5′-yl)ester], at hP2Y14 receptor, the pEC50 is below 5.00. Turning to `CCOP(=O)(O)OP(=O)(O)OC[C@H]1O[C@@H](n2ccc(=O)[nH]c2=S)[C@H](O)[C@@H]1O.N` [Compound 17, Diphosphoric acid 1-β-ethyl ester 2-(2-thiouridine-5′-yl)ester], the “fold selectivity for P2Y14” value on hP2Y14 receptor is > 200 fold and > 250 fold.

Take `CCCOP(=O)(O)OP(=O)(O)OC[C@H]1O[C@@H](n2ccc(=O)[nH]c2=S)[C@H](O)[C@@H]1O.N` [Compound 18, Diphosphoric acid 1-β-propyl ester 2-(2-thiouridine-5′-yl)ester]: on hP2Y14 receptor, the “fold selectivity for P2Y14” value is given as above 200 fold. Consider `N.N#CCCOP(=O)(O)OP(=O)(O)OC[C@H]1O[C@@H](n2ccc(=O)[nH]c2=O)[C@H](O)[C@@H]1O` [Compound 19, Diphosphoric acid 1-β-(2-cyanoethyl)ester 2-(uridine-5′-yl)ester], for which the “agonist activity at the P2Y14 receptor (in words)” value on hP2Y14 receptor is given as “poorly tolerated”. Take `C#CCCOP(=O)(O)OP(=O)(O)OC[C@H]1O[C@@H](n2ccc(=O)[nH]c2=O)[C@H](O)[C@@H]1O.CCN(CC)CC` [Compound 20, Diphosphoric acid 1-β-(3-butynyl)ester 2-(uridine-5′-yl)ester]: on hP2Y14 receptor, the “fold less potent than UDP 3 at the P2Y14 receptor” value is recorded as 2 fold.

With `C#CCCOP(=O)(O)OP(=O)(O)OC[C@H]1O[C@@H](n2ccc(=O)[nH]c2=S)[C@H](O)[C@@H]1O.CCN(CC)CC` [Compound 21, Diphosphoric acid 1-β-(3-butynyl) ester 2-(2-thiouridine-5′-yl)ester], on hP2Y14 receptor, the “fold selectivity for P2Y14” value was above 900 fold and the “fold more potent than UDP 3 at the P2Y14 receptor” value is given as 16 fold. As for `N.O=c1ccn([C@@H]2O[C@H](COP(=O)(O)OP(=O)(O)OCC(O)CO)[C@@H](O)[C@H]2O)c(=O)[nH]1` (stereo partly drawn) [Compound 22, Diphosphoric acid 1-α-glycerol ester 2-(uridine-5′-yl)ester], the “fold less potent than UDP 3 at the P2Y14 receptor” value on hP2Y14 receptor is 10 fold. For the compound `CC(C)(C)OP(=O)(O)OP(=O)(O)OC[C@H]1O[C@@H](n2ccc(=O)[nH]c2=O)[C@H](O)[C@@H]1O` [Compound 24, Diphosphoric acid 1-β-tert-butyl ester 2-(uridine-5′-yl)ester], on hP2Y6 receptor [1], the pEC50 is 4.97. For `CC(C)(C)OP(=O)(O)OP(=O)(O)OC[C@H]1O[C@@H](n2ccc(=O)[nH]c2=S)[C@H](O)[C@@H]1O.N` [Compound 25, Diphosphoric acid 1-β-tert-butyl ester 2-(2-thiouridine-5′-yl)ester], the “fold more potent than UDPG at the P2Y14 receptor” value on hP2Y14 receptor (relative to UDPG 1) is 11 fold. Further, the “fold more potent than the corresponding 2-oxo analogue 24 at the P2Y14 receptor” value on hP2Y14 receptor (relative to compound 24) is listed as 8 fold.
